19 molecules from patent US20240246964A1 (Arbutus Biopharma Corporation, priority 2021, published 2024) can be followed below.

Structures are written as SMILES.

Assay [1] deals with PD-L1 His protein / PD-1 Fc protein (Homo sapiens (Human), UniProt Q9NZQ7). Put plainly: HTRF Assay (PD-1/PD-L1 interaction). Type of assay: binding. The note with it: PD-L1 His 6 nM, PD-1 Fc 6 nM.
The next assay addresses human PD-L1 (Homo sapiens (Human), UniProt Q9NZQ7). Put plainly: T cell activation luciferase reporter cell culture system (T Cell Activation Assay). The note with it: luciferase reporter assay; PD-L1 aAPC/CHO-K1 cells with PD-1 effector Jurkat T cells. Type of assay: cell-based.

Chain of human PD-L1 (Q9NZQ7 19-290): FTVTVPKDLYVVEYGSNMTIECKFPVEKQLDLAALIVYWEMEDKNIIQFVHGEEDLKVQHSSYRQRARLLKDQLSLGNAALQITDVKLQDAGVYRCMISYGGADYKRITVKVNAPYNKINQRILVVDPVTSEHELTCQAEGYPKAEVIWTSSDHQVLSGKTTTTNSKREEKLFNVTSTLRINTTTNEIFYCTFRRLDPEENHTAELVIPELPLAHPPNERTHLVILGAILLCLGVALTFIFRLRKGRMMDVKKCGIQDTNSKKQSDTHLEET
Chain of PD-L1 His protein / PD-1 Fc protein (Q9NZQ7 19-238): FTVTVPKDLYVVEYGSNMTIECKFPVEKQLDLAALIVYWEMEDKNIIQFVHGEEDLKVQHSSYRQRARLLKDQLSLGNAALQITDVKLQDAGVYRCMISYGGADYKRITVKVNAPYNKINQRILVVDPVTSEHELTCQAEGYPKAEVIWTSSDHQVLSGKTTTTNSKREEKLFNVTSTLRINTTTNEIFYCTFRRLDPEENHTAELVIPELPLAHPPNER

Turning to `COc1cc(-c2nccc(-c3cccc(-c4ccc(CNC[C@@H]5CCC(=O)N5)c(OC)n4)c3Cl)c2Cl)cc(C)c1CN(C)C[C@H](C)O` [Compound 118, (S)-5-((((6-(2-chloro-3-(3-chloro-2-(4-((((S)-2-hydroxypropyl)(methyl)amino)methyl)-3-methoxy-5-methylphenyl)pyridin-4-yl)phenyl)-2-methoxypyridin-3-yl)methyl)amino)methyl)pyrrolidin-2-one], in assay [1], inhibition was half-maximal at 1.6 nM (IC50). This molecule displayed an EC50 on human PD-L1 of 44.1 nM.

Regarding `COc1nc(-c2cccc(-c3ccnc(-c4cc5c(=O)n(C)c(CNC[C@@H]6CCC(=O)N6)nn5c4)c3Cl)c2Cl)ccc1CNC[C@@H]1CCC(=O)N1` [Compound 103, 6-(3-chloro-4-(2-chloro-3-(6-methoxy-5-(((((S)-5-oxopyrrolidin-2-yl)methyl)amino)methyl)pyridin-2-yl)phenyl)pyridin-2-yl)-3-methyl-2-(((((S)-5-oxopyrrolidin-2-yl)methyl)amino)methyl)pyrrolo[2,1-f][1,2,4]triazin-4(3H)-one], the concentration for half-maximal inhibition (IC50) in assay [1] was determined as 0.7 nM. Moreover, the midpoint of the response on human PD-L1, the EC50, lay at 304 nM.

As to `COc1nc(-c2cccc(-c3ccnc(-c4cc5c(=O)n(C)c(CN6CC(C)(O)C6)nn5c4)c3Cl)c2Cl)ccc1CNC[C@@H]1CCC(=O)N1` [Compound 110, (S)-6-(3-chloro-4-(2-chloro-3-(6-methoxy-5-((((5-oxopyrrolidin-2-yl)methyl)amino)methyl)pyridin-2-yl)phenyl)pyridin-2-yl)-2-((3-hydroxy-3-methylazetidin-1-yl)methyl)-3-methylpyrrolo[2,1-f][1,2,4]triazin-4(3H)-one], the IC50 in assay [1] was 0.9 nM. On human PD-L1, this molecule yielded an EC50 of 60.5 nM.

In assay [1], `COC(=O)C1CN(Cc2nn3cc(-c4nccc(-c5cccc(-c6ccc(CNC[C@@H]7CCC(=O)N7)c(OC)n6)c5Cl)c4Cl)cc3c(=O)n2C)C1` [Compound 182, methyl (S)-1-((6-(3-chloro-4-(2-chloro-3-(6-methoxy-5-((((5-oxopyrrolidin-2-yl)methyl)amino)methyl)pyridine-2-yl)phenyl)pyridine-2-yl)-3-methyl-4-oxo-3,4-dihydropyrrolo[2,1-f][1,2,4]pyridine-2-yl)methyl)azetidine-3-carboxylate] had an IC50 of 2.46 nM. A half-maximal effect on human PD-L1 (EC50) was put at 38.7 nM.

In assay [1], `COc1nc(-c2cccc(-c3ccnc(-c4cc(OC)c5nc(CN6CC(C)(O)C6)nn5c4)c3Cl)c2Cl)ccc1CNC1CCN(C(C)=O)CC1` [Example 637, 1-(4-(((6-(2-chloro-3-(3-chloro-2-(2-((3-hydroxy-3-methylazetidin-1-yl)methyl)-8-methoxy-[1,2,4]triazolo[1,5-a]pyridin-6-yl)pyridin-4-yl)phenyl)-2-methoxypyridin-3-yl)methyl)amino)piperidin-1-yl)ethan-1-one] displayed an IC50 of 0.29 nM. In addition, a half-maximal effect at human PD-L1 (EC50) was put at 116 nM.

With `COc1cc(-c2nccc(-c3ccnc(-c4cc(F)c(CNC5CCN(C(C)=O)CC5)c(OC)c4)c3Cl)c2Cl)cc(F)c1CNC1CCN(C(C)=O)CC1` [Compound 313, 1,1′-(((((3,3′-Dichloro-[4,4′-bipyridine]-2,2′-diyl)bis(2-fluoro-6-methoxy-4,1-phenylene))bis(methylene))bis(azanediyl))bis(piperidine-4,1-diyl))bis(ethan-1-one)], the IC50 in assay [1] was found to be 4.6 nM. At human PD-L1, this molecule showed an EC50 of 97.3 nM.

Molecule `COc1cc(-c2ncnc(-c3cccc(-c4ccc(CNCc5cnco5)c(OC)n4)c3Cl)c2Cl)ccc1CNCc1cnco1` [Example 643, 1-(6-(2-Chloro-3-(5-chloro-6-(3-methoxy-4-(((oxazol-5-ylmethyl)amino)methyl)phenyl)pyrimidin-4-yl)phenyl)-2-methoxypyridin-3-yl)-N-(oxazol-5-ylmethyl)methanamine] yielded an IC50 in assay [1] of 4.17 nM. The EC50 on human PD-L1 stood at 1530 nM.

Turning to `CNCc1ccc(-c2cccc(-c3ccnc(-c4cc(CN5CC6(CC(C(=O)O)C6)C5)cc(OC)c4)c3Cl)c2Cl)nc1OC` [Compound 173, 2-(3-(3-chloro-4-(2-chloro-3-(6-methoxy-5-((methylamino)methyl)pyridine-2-yl)phenyl)pyridine-2-yl)-5-methoxybenzyl)-2-azaspiro[3.3]heptane-6-carboxylic acid], in assay [1], the IC50 amounted to 32.1 nM. For the same molecule, at human PD-L1, the EC50 is ≥ 10000 nM.

Turning to `COc1cc(-c2nccc(-c3cccc(-c4ccc(CNC5CCS(=O)(=O)CC5)c(OC)n4)c3Cl)c2Cl)ccc1CNC1CCS(=O)(=O)CC1` [Example 299, 4-(((6-(2-Chloro-3-(3-chloro-2-(4-(((1,1-dioxidotetrahydro-2H-thiopyran-4-yl)amino)methyl)-3-methoxyphenyl)pyridin-4-yl)phenyl)-2-methoxypyridin-3-yl)methyl)amino)tetrahydro-2H-thiopyran 1,1-dioxide], the IC50 in assay [1] was determined as 0.79 nM. This molecule also registered an EC50 on human PD-L1 of 22.6 nM.

In assay [1], `Cc1c(NC(=O)c2ccc(CNCCO)cn2)cccc1-c1ccnc(-c2ccc(CNC[C@@H]3CCC(=O)N3)c(OC(F)F)c2)c1Cl` [Example 770, (S)—N-(3-(3-Chloro-2-(3-(difluoromethoxy)-4-((((5-oxopyrrolidin-2-yl)methyl)amino)methyl)phenyl)pyridin-4-yl)-2-methylphenyl)-5-(((2-hydroxyethyl)amino)methyl)picolinamide] returned an IC50 of 0.76 nM. The midpoint of the response at human PD-L1, the EC50, lay at 24.3 nM.

Molecule `COc1nc(-c2cccc(-c3ccnc(-c4cc5c(=O)n(C)c(CN6CC(C)(O)C6)nn5c4)c3Cl)c2Cl)ccc1CN1CC(C)(O)C1` [Example 231, 6-(3-Chloro-4-(2-chloro-3-(5-((3-hydroxy-3-methylazetidin-1-yl)methyl)-6-methoxypyridin-2-yl)phenyl)pyridin-2-yl)-2-((3-hydroxy-3-methylazetidin-1-yl)methyl)-3-methylpyrrolo[2,1-f][1,2,4]triazin-4(3H)-one] came in with an IC50 in assay [1] of 3.53 nM. This molecule also displayed an EC50 on human PD-L1 of 105 nM.

In assay [1], `COc1nc(-c2cccc(-c3ccnc(-c4cc5c(=O)n(C)c(CNC(C)C)nn5c4)c3Cl)c2Cl)ccc1CNC[C@@H]1CCC(=O)N1` [Compound 111, (S)-6-(3-chloro-4-(2-chloro-3-(6-methoxy-5-((((5-oxopyrrolidin-2-yl)methyl)amino)methyl)pyridin-2-yl)phenyl)pyridin-2-yl)-2-((isopropylamino)methyl)-3-methylpyrrolo[2,1-f][1,2,4]triazin-4(3H)-one] had an IC50 of 2.2 nM. Moreover, at human PD-L1, the EC50 was found to be 263 nM.

For the molecule `COc1nc(-c2cccc(-c3nccc(-c4ccc(CN5CCC(O)CC5)c(OC)n4)c3Cl)c2Cl)ccc1CNC1CCN(C(C)=O)CC1` [Example 761, 1-(4-(((6-(2-Chloro-3-(3′-chloro-5-((4-hydroxypiperidin-1-yl)methyl)-6-methoxy-[2,4′-bipyridin]-2′-yl)phenyl)-2-methoxypyridin-3-yl)methyl)amino)piperidin-1-yl)ethan-1-one], the IC50 in assay [1] came out at 0.87 nM. Further, on human PD-L1, the EC50 came out at 16.9 nM.

Turning to `COc1nc(-c2cccc(-c3ccnc(-c4ccc5c(c4)CN(CCNC[C@@H]4CCC(=O)N4)C5=O)c3Cl)c2Cl)ccc1CNC1CCN(C(C)=O)CC1` [Compound 143, (S)-5-(4-(3-(5-(((1-acetylpiperidin-4-yl)amino)methyl)-6-methoxypyridin-2-yl)-2-chlorophenyl)-3-chloropyridin-2-yl)-2-(2-(((5-oxopyrrolidin-2-yl)methyl)amino)ethyl)isoindolin-1-one], inhibition in assay [1] was half-maximal at 3.94 nM (IC50). On human PD-L1, the EC50 turned out to be 5440 nM.

`COc1nc(-c2cccc(-c3ccnc(-c4cc(OC)c5nc(CNC[C@@H]6CCC(=O)N6)nn5c4)c3Cl)c2Cl)ccc1CNC(C)C` [Compound 764, (S)-5-((((6-(3-chloro-4-(2-chloro-3-(5-((isopropylamino)methyl)-6-methoxypyridin-2-yl)phenyl)pyridin-2-yl)-8-methoxy-[1,2,4]triazolo[1,5-a]pyridin-2-yl)methyl)amino)methyl)pyrrolidin-2-one] displayed an IC50 in assay [1] of 0.56 nM. This molecule showed an EC50 at human PD-L1 of 865 nM.

`COc1cc(-c2nccc(-c3cccc(-c4ccc5c(CNC[C@@H]6CCC(=O)N6)cn(C)c5n4)c3Cl)c2Cl)ccc1CNC[C@@H]1CCC(=O)N1` [Compound 17, (S)-5-((((6-(2-chloro-3-(3-chloro-2-(3-methoxy-4-(((((S)-5-oxopyrrolidin-2-yl)methyl)amino)methyl)phenyl)pyridin-4-yl)phenyl)-1-methyl-1H-pyrrolo[2,3-b]pyridin-3-yl)methyl)amino)methyl)pyrrolidin-2-one]: the concentration for half-maximal inhibition (IC50) in assay [1] was found to be 2.4 nM. The molecule further displayed an EC50 on human PD-L1 of 29.2 nM.

`COc1cc(-c2nccc(-c3cccc(-c4ccc(CN5CCC(NC(C)=O)CC5)c(OC)n4)c3Cl)c2Cl)ccc1CN1CCC(NC(C)=O)CC1` [Example 322, N-(1-((6-(3-(2-(4-((4-Acetamidopiperidin-1-yl)methyl)-3-methoxyphenyl)-3-chloropyridin-4-yl)-2-chlorophenyl)-2-methoxypyridin-3-yl)methyl)piperidin-4-yl)acetamide] registered a 50% inhibitory concentration (IC50) in assay [1] of 23.1 nM. The molecule further registered an EC50 at human PD-L1 of 72.9 nM.

In assay [1], `COc1cc(-c2nccc(-c3cccc(-c4ccc5c(OC)c(CNC6CCN(C(C)=O)CC6)cc(Cl)c5n4)c3Cl)c2Cl)ccc1CNC[C@@H]1CCC(=O)N1` [Example 241, (S)-5-(((4-(4-(3-(6-(((1-Acetylpiperidin-4-yl)amino)methyl)-8-chloro-5-methoxyquinolin-2-yl)-2-chlorophenyl)-3-chloropyridin-2-yl)-2-methoxybenzyl)amino)methyl)pyrrolidin-2-one] registered an IC50 of 14.3 nM. Besides, at human PD-L1, the EC50 was ≥ 10000 nM.

For `COc1cc(-c2cccc(-c3ccnc(-c4cnc(CN5CC6(CNC(=O)C6)C5)c(OC)c4)c3Cl)c2Cl)cnc1CN1CC2(CNC(=O)C2)C1` [Compound 569, 2-((3-Chloro-4-(2-chloro-3-(5-methoxy-6-((7-oxo-2,6-diazaspiro[3.4]octan-2-yl)methyl)pyridin-3-yl)phenyl)-5′-methoxy-[2,3′-bipyridin]-6′-yl)methyl)-2,6-diazaspiro[3.4]octan-7-one], in assay [1], inhibition was half-maximal at 0.62 nM (IC50). The molecule further had an EC50 on human PD-L1 of 580 nM.
